Measured values as given in patent US20130344095A1, “METHOD OF USING CD1D OVER-EXPRESSION IN HUMAN DENDRITIC CELLS TO ENHANCE CD8+ T CELL-BASED AND INVARIANT NATURAL KILLER T CELL-BASED ANTITUMOR IMMUNITY” (priority 2011, published 2013).

Experiments:
[1] = tested on: MART-1 peptide-specific CD8+ T cells; test: Priming of MART-1 peptide-specific CD8+ T cells by H1.DCs (pentamer staining); format: cell-based, human; conditions: for T cell priming ability of CD1d-overexpressing H1.DCs: DCs treated 24 hours with 20 μM PPMP or 150 μM NB-DGJ one day after transduction
Experimental: (§1) The DCs were first transduced by BV-CMV.CD1d-WPRE and pulsed with or without 100 ng/ml α-GC for 24 h one day after transduction. Two days after transduction, the DCs were pulsed with 10 μg/ml MART-1 peptide for 4 h. After washing, 10^5 DCs were co-cultured with 10^6 HLA A2+ PBLs in complete RPMI 1640. After co-culture of 9 days, to detect antigen-specific CTLs, the samples were stained with APC mouse anti-human CD3, FITC-labeled anti-CD8 (ProImmune) and R-PE-labeled A*0201/[…] Pentamer (ProImmune) and analyzed by FACSAria flow cytometer. In some experiments, the CD1d-overexpressing human DCs were pretreated with anti-CD1d blocking antibody (eBioscience, San Diego, Calif.) or its isotype control (eBiosciecne) before applying for T cell priming. To study the effect of glycolipid biosynthesis inhibition on T cell priming, the BVCD1d-transduced human DCs were treated with 20 μM DL-threo-1-Phenyl-2-palmitoylamino-3-morpholino-1-propanol (PPMP; Sigma-Aldrich) or 150 μM N-(n-Butyl)deoxygalactonojirimycin (NB-DGJ; Merck KGaA, Darmstadt, Germany) for 24 hours one day after transduction. In other experiments, the cocultures were restimulated with 10^5 MART-1 peptide-pulsed DCs on day 9 of coculture and analyzed one week after restimulation. To measure antigen-specific CTL activity, the cocultures were stimulated for the third time on day 7 after second stimulation with 10^5 MART-1 peptide-pulsed DCs and used as effectors for lysis of tumor cells one week later.

[2] = tested on: MART-1 peptide-specific CD8+ T cells; test: Priming of MART-1 peptide-specific CD8+ T cells by moDCs (pentamer staining); format: cell-based, human; conditions: DCs treated 24 hours with 20 μM PPMP or 150 μM NB-DGJ one day after transduction
Experimental: as §1, with “To measure antigen-specific CTL activity, the cocultures were stimulated for the third time on day 7 after second stimulation with 10^5 MART-1 peptide-pulsed DCs and used as effectors for lysis of tumor cells one week later.” left out

CCCCCCCCCCCCCCCC(=O)N[C@H](CN1CCOCC1)[C@H](O)c1ccccc1 (racemic) [PPMP, DL-threo-1-Phenyl-2-palmitoylamino-3-morpholino-1-propanol]
T cell priming ability of CD1d-overexpressing H1.DCs [1]: inhibited | T cell priming ability of CD1d-overexpressing moDCs [2]: inhibited

CCCCN1C[C@H](O)[C@@H](O)[C@@H](O)[C@H]1CO [NB-DGJ, N-(n-Butyl)deoxygalactonojirimycin]
T cell priming ability of CD1d-overexpressing H1.DCs [1]: inhibited | T cell priming ability of CD1d-overexpressing moDCs [2]: inhibited

CCCCCCCCCCCCCCCCCCCCCCCCCC(=O)N[C@@H](CO[C@H]1O[C@H](CO)[C@H](O)[C@H](O)[C@H]1O)[C@H](O)[C@H](O)CCCCCCCCCCCCCC [α-GC, α-galactosylceramide]
priming ability of CD1d-overexpressing H1.DCs with α-GC loading ([1]; compared with those without α-GC loading (p<0.04)): significantly decreased | effect of α-GC loading on priming of antigen-specific CD8+ T cells ([1]; mock-transduced, BV-PacPAK6-transduced and CD1d-overexpressing H1.DCs, 100 ng/ml α-GC): no obvious beneficial effect
